Measured values: PMC7168207, “Dibasic Derivatives of Phenylcarbamic Acid as Prospective Antibacterial Agents Interacting with Cytoplasmic Membrane” (Antibiotics, 2020)
“And” between values parts separate entries of the source, which are not always exact repeats. Equal entries are not always repeated. Where two headings read alike, the source gives them in different places. Marks after values point to notes of the source that are not given here.

Tests used:
[1] = design: method as in PMID 30274224; conditions: isocratic RP-HPLC, extrapolated lipophilicity index; cited from earlier work
[2] = design: method as in PMID 30274224; conditions: methanolic solutions, c = 8.0 × 10^−5 M; cited from earlier work
[3] = tested on: vancomycin-resistant enterococci VRE 725B; assay: MIC, broth microdilution; assay type: cell-based, Enterococcus faecalis; conditions: Enterococcus; VRE3 = VRE 725B; read-out: MICs
Procedure, shortened: (§1)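 Overnight colonies from blood agar were suspended in PBS to 0.5 McFarland and diluted to 5 × 10^5 CFU/mL final in wells. Staphylococci were tested in cation-adjusted Mueller–Hinton broth and enterococci in brain heart infusion.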

[4] = tested on: vancomycin-resistant enterococci VRE 368; assay: MIC, broth microdilution; assay type: cell-based, Enterococcus faecalis; conditions: Enterococcus; VRE2 = VRE 368; read-out: MICs
Procedure, shortened: as §1

MRSA 63718 = assay: time-kill study; assay type: cell-based, Staphylococcus aureus; conditions: MRSA1
Text: (§2) Time-kill studies are used to evaluate the dynamics of antibacterial activity. As mentioned above, a pre-test to determine minimum bactericidal concentration (MBC) by sub-cultivation of aliquots on agar was made (see Section 3.4). […] Time-kill studies were made with methicillin-susceptible S. aureus ATCC 29213 and methicillin-resistant MRSA 63718, vancomycin-susceptible E. faecalis ATCC 29212, and all three VRE isolates. Vancomycin was used as a control (Table 6).
(§3) The method of time-kill curves was used to study the bactericidal effect of selected compounds. […] The experiment was performed with S. aureus ATCC 29213, MRSA 63718, E. faecalis ATCC 29212, and all VRE isolates. […] The tubes were inoculated by bacterial inoculum in the exponential phase of growth to get a final concentration of 7.5 × 10^6 CFU/mL. The tubes were incubated statically at 37 °C. Immediately after inoculation and after 4, 6, 8, and 24 h, 100 µL of the sample was serially diluted (1:10) in PBS. Then, 2 × 20 µL from each dilution were put onto a Mueller–Hinton agar plate and cultivated at 37 °C for 24 h. After incubation, CFUs of dilutions containing 5–50 colonies were counted. Results were expressed as a decrease of log10(CFU) in each time compared to the starting inoculum. Bactericidal effect is defined as a −3log decrease of CFU/mL compared to the growth control in time 0. The test was made in duplicate on two separate occasions, and the results were averaged. The growth curves with error bars are shown in Figures S1 and S2 in Supplementary Materials.

S. aureus ATCC 29213 [5] = assay: time-kill study; assay type: cell-based, Staphylococcus aureus; conditions: SA
Text: as §2, §3

[6] = tested on: methicillin-resistant S. aureus SA 3202; assay: MIC, broth microdilution; assay type: cell-based, Staphylococcus aureus; conditions: Staphylococcus aureus; MRSA3 = SA 3202; read-out: MICs
Procedure, shortened: as §1

[7] = tested on: methicillin-resistant S. aureus SA 630; assay: MIC, broth microdilution; assay type: cell-based, Staphylococcus aureus; conditions: Staphylococcus aureus; MRSA2 = SA 630; read-out: MICs
Procedure, shortened: as §1

[8] = tested on: methicillin-resistant S. aureus 63718; assay: MIC, broth microdilution; assay type: cell-based, Staphylococcus aureus; conditions: Staphylococcus aureus; MRSA1 = S. aureus 63718; read-out: MICs
Procedure, shortened: as §1

S. aureus ATCC 29213 [9] = assay: MIC, broth microdilution; assay type: cell-based, Staphylococcus aureus; conditions: Staphylococcus aureus, ATCC29213
Procedure, shortened: as §1

S. aureus ATCC 29213 [10] = assay: crystal violet uptake (membrane permeability); assay type: cell-based, Staphylococcus aureus; conditions: 64 µg/mL, 1 h; two-way ANOVA, Tukey's test, p < 0.05
Protocol: The alternation in membrane permeability was detected by crystal violet assay. Bacterial suspension treated by compounds 1f, 1g, and 1h (all 64 µg/mL) for 1 h was prepared. The uptake of crystal violet was expressed as a percentage compared to the original crystal violet solution.
The method of crystal violet uptake was used to study membrane alteration. Bacterial suspension was cultivated to log phase in CaMH and then harvested at 4500 rpm for 5 min. The cells were washed twice and resuspended in PBS containing 64 µg/mL of the tested compounds. […] A growth control without antibiotics and a control containing the same amount of DMSO as treated tubes were included. The tubes were cultivated at 37 °C for 1 h. After that, the tubes were centrifuged at 4500 rpm for 15 min and washed twice in PBS. The cells were resuspended in PBS containing crystal violet (10 µg/mL). After 15 min incubation at 37 °C and centrifugation (15 min, 4500 rpm), the absorbance of supernatant at 595 nm was measured. The experiment was repeated three times, and the results were averaged. The percentage of crystal violet uptake was counted according to the equation:(1) % of uptake = OD595 of sample/OD595 of crystal violet solution × 100

[11] = tested on: Candida albicans CCM 8261; assay: minimum fungistatic concentration, RPMI 1640; assay type: cell-based; conditions: CCM8261, CA = C albicans CCM 8261, 48 h
Procedure, shortened: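 Broth microdilution in RPMI 1640 with a final inoculum of 10^3 CFU/mL, incubated 48 h at 37 °C. The endpoint was the lowest concentration giving visually complete (100%) growth inhibition.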

## CCCCCCCOc1cccc(NC(=O)OC(CN(CCC)CCC)CN2CCCC2)c1.Cl.Cl (centres unmarked) [1h, 1-[3-(Dipropylammonio)-2-({[3-(heptyloxy)phenyl]carbamoyl}oxy)propyl]pyrrolidinium dichloride]
[1]
  log kw: 5.5384
[2]
  log ε2 (Ch-T): 4.27
[3]
  MIC: 4 µg/mL and 7.51 µM
[4]
  MIC: 4 µg/mL and 7.51 µM
MRSA 63718; 1 × MIC, 4 h
  Log10 Difference in CFU/mL from Inoculum: −0.73 * log10 CFU/mL
MRSA 63718; 1 × MIC, 6 h
  Log10 Difference in CFU/mL from Inoculum: −0.11 log10 CFU/mL
MRSA 63718; 1 × MIC, 8 h
  Log10 Difference in CFU/mL from Inoculum: 0.98 log10 CFU/mL
MRSA 63718; 1 × MIC, 24 h
  Log10 Difference in CFU/mL from Inoculum: 1.58 log10 CFU/mL
MRSA 63718; 2 × MIC, 4 h
  Log10 Difference in CFU/mL from Inoculum: −0.92 * log10 CFU/mL
MRSA 63718; 2 × MIC, 6 h
  Log10 Difference in CFU/mL from Inoculum: −0.42 * log10 CFU/mL
MRSA 63718; 2 × MIC, 8 h
  Log10 Difference in CFU/mL from Inoculum: −0.13 log10 CFU/mL
MRSA 63718; 2 × MIC, 24 h
  Log10 Difference in CFU/mL from Inoculum: 1.62 log10 CFU/mL
MRSA 63718; 4 × MIC, 4 h
  Log10 Difference in CFU/mL from Inoculum: −2.48 * log10 CFU/mL
MRSA 63718; 4 × MIC, 6 h
  Log10 Difference in CFU/mL from Inoculum: −2.40 * log10 CFU/mL
MRSA 63718; 4 × MIC, 8 h
  Log10 Difference in CFU/mL from Inoculum: −2.08 * log10 CFU/mL
MRSA 63718; 4 × MIC, 24 h
  Log10 Difference in CFU/mL from Inoculum: 1.35 log10 CFU/mL
S. aureus ATCC 29213 [5]; 1 × MIC, 4 h
  Log10 Difference in CFU/mL from Inoculum: 0.08 log10 CFU/mL
S. aureus ATCC 29213 [5]; 1 × MIC, 6 h
  Log10 Difference in CFU/mL from Inoculum: 0.31 log10 CFU/mL
S. aureus ATCC 29213 [5]; 1 × MIC, 8 h
  Log10 Difference in CFU/mL from Inoculum: 0.50 log10 CFU/mL
S. aureus ATCC 29213 [5]; 1 × MIC, 24 h
  Log10 Difference in CFU/mL from Inoculum: 2.07 log10 CFU/mL
S. aureus ATCC 29213 [5]; 2 × MIC, 4 h
  Log10 Difference in CFU/mL from Inoculum: 0.05 log10 CFU/mL
S. aureus ATCC 29213 [5]; 2 × MIC, 6 h
  Log10 Difference in CFU/mL from Inoculum: 0.10 log10 CFU/mL
S. aureus ATCC 29213 [5]; 2 × MIC, 8 h
  Log10 Difference in CFU/mL from Inoculum: 0.05 log10 CFU/mL
S. aureus ATCC 29213 [5]; 2 × MIC, 24 h
  Log10 Difference in CFU/mL from Inoculum: 2.01 log10 CFU/mL
S. aureus ATCC 29213 [5]; 4 × MIC, 4 h
  Log10 Difference in CFU/mL from Inoculum: −0.25 log10 CFU/mL
S. aureus ATCC 29213 [5]; 4 × MIC, 6 h
  Log10 Difference in CFU/mL from Inoculum: −0.13 log10 CFU/mL
S. aureus ATCC 29213 [5]; 4 × MIC, 8 h
  Log10 Difference in CFU/mL from Inoculum: −0.08 log10 CFU/mL
S. aureus ATCC 29213 [5]; 4 × MIC, 24 h
  Log10 Difference in CFU/mL from Inoculum: 1.93 log10 CFU/mL
[6]
  MIC: 8 µg/mL and 15 µM
[7]
  MIC: 8 µg/mL and 15 µM
[8]
  MIC: 8 µg/mL and 15 µM
S. aureus ATCC 29213 [9]; SA = S. aureus ATCC 29213, read-out: MICs
  MIC: 8 µg/mL and 15 µM
S. aureus ATCC 29213 [9]; Table 7, planktonic cells of S. aureus ATCC 29213, read-out: MIC
  MIC: 8 µg/mL
S. aureus ATCC 29213 [10]
  crystal violet uptake compared with 1% Tween 20 (positive control): No statistically significant difference
[11]
  MIC: 8 µg/mL and 15 µM
